The subject of series [1] is intraperitoneal SKOV3-luc ovarian tumor. Briefly: Biodistribution after i.p. injection, xenograft model III. It counts as in vivo, mice. The conditions noted are these: up to 72 h. The method, then:
PEG^5000-CA8 (polymer 7) nanoparticles biodistribution after i.p. injection in intraperitoneal SKOV3-luc ovarian tumor bearing mice was investigated. Mice were injected i.p. with free DiD or DiD-loaded PEG^5000-CA8 nanoparticles. […] At 72 h, the peritoneal cavity was exposed and scanned with the Kodak imaging station, displaying DiD-labeled PEG^5000-CA8 nanoparticles localization on the surface of peritoneal tumor nodules (FIGS. 38A-38B).

Series [2] concerns SKOV-3 ovarian cancer xenografts. Nature of the series: Size effect on biodistribution, NIR imaging, xenograft model II. The arrangement: species or system nude mice. The conditions noted are these: in vivo NIR imaging. On the procedure: To study the effects of particle size on the in vivo biodistribution of nanoparticles, the same concentration of DiD (a hydrophobic near infra-red (NIR) cyanine dye, 1 mg/mL) was co-loaded with PTX (4 mg/mL, 4 mg/mL and 3 mg/mL, respectively) into 20 mg/mL micelle solutions of PEG^2000-CA4, PEG^5000-CA8 and PEG^3000-CA4, to form three fluorescence labeled micelle preparations with distinct sizes of 17 nm, 64 nm and 154 nm, respectively (FIG. 35A). Each of these three sizes of DiD-loaded micelles was incubated with Raw 264.7 macrophage cells for 2 h. The cells were then washed three times with PBS, fixed with 70% ethanol and observed under confocal fluorescence microscope. […] NIR fluorescent imaging was used to evaluate the in vivo biodistribution of the three micelles with different sizes in nude mice bearing the SKOV-3 ovarian cancer xenografts (subcutaneous and intraperitoneal implants). The mice were injected via the tail vein with the same volume of the above three PTX-DiD loaded micelle preparations in PBS. Ex vivo imaging of the excised organs and tumors were performed at 24 h after injection. […] The in vivo NIR images of a tumor bearing mouse treated with the DiD-PTX-PEG^5000CA8 was recorded over time (FIG. 35D). The accumulation of the DiD loaded micelles at the tumor site via the EPR effect began at 2 h after injection and continued to increase over the 24 h period.

We go through one compound from patent publication US10556021B2, “Nanocarriers for drug delivery” (THE REGENTS OF THE UNIVERSITY OF CALIFORNIA, priority 2008, dated 2020).

Each structure is given as a SMILES string.

Consider `CCCCCCCCCCCCCCCCCCN1C(=CC=CC=CC2=[N+](CCCCCCCCCCCCCCCCCC)c3ccccc3C2(C)C)C(C)(C)c2ccccc21.[O-][Cl+3]([O-])([O-])[O-]` [DiD, 1,1′-dioctadecyl-3,3,3′,3′-tetramethylindo-dicarbocyanine perchlorate], for which the “fluorescence distribution after i.p. injection” value in series [1] is “declined to a level not distinguishable from background auto-fluorescence at 72 h”. Moreover, the tumor targeting result in series [2] is “no tumor targeting was found”.
